From patent US7718128B2, “Application using non-covalent bond between a cucurbituril derivative and a ligand” (Postech Foundation, priority 2005, dated 2010)

Tested on: KB cells (oral carcinoma cells)
Assay: measurement of degree of cell death by flow cytometry (annexin V-ferrocene derivative / FITC-cucurbituril derivative)
Type: cell-based
Settings: 0.5 μM (0.3 μg/mL) doxorubicin, 3 days, versus sample not treated
Experimental: After a ferrocene derivative bound to annexin V, which is known as a protein that can selectively bind to surfaces of dead cells, was treated on cells induced to die using an anti-cancer drug, the cells were treated with an FITC-bound cucurbituril derivative, and the degree of cell death was measured through flow cytometry.
2 mL of […] culture solution (containing 10% FCS) and about 10^6 KB cells (oral carcinoma cells) (obtained from the Korean Cell Line Bank (KCLB)) were cultured in two 6-well cell culture dishes at 37° C. in a 5% CO2 condition for 48 hours.
Next, 2 mL of the RPMT-1640 culture solution (containing 10% FCS) in one of the 6-well cell culture dishes was replaced by the same, fresh culture solution, and 2 mL of the RPMT-1640 culture solution in the other 6-well cell culture dish was replaced by 0.5 μM (0.3 μg/mL) of doxorubicin, and the two culture dishes were incubated at 37° C. in a 5% CO2 condition for 3 days.
The culture solution in the two cell culture dishes incubated in (1) was removed. […]
Next, the degree of cell depth in each of the samples was measured through flow cytometry (FACSCalibur, Becton Dickinson Corp., Ex=488 nm, Em=530 nm (for FITC detection).

SMILES: COc1cccc2c1C(=O)c1c(O)c3c(c(O)c1C2=O)C[C@@](O)(C(=O)CO)C[C@@H]3O[C@H]1C[C@H](N)[C@H](O)[C@H](C)O1 [doxorubicin]
- degree of cell death (FITC signal, flow cytometry): most cells in the doxorubicin-treated sample died
